According to ChEMBL document CHEMBL5365457, “Selective HDAC3 Inhibitors with Potent In Vivo Antitumor Efficacy against Triple-Negative Breast Cancer” (J Med Chem, 2023):
Active and inactive are the calls of the source. The rule behind the calls is not given here.

Tests used:
MCF7 = test: Cytotoxicity against human MCF7 cells assessed as inhibition of cell growth incubated for 72 hrs by MTT assay; assay type: functional, cell-based; conditions: MCF7, 72 h
4T1 [1] = test: Cytotoxicity against mouse 4T1 cells assessed as inhibition of cell growth incubated for 72 hrs by MTT assay; assay type: functional, cell-based; conditions: 4T1, 72 h
MDA-MB-231 [2] = test: Cytotoxicity against human MDA-MB-231 cells assessed as inhibition of cell growth incubated for 72 hrs by MTT assay; assay type: functional, cell-based; conditions: MDA-MB-231, 72 h
MDA-MB-453 = test: Cytotoxicity against human MDA-MB-453 cells assessed as inhibition of cell growth incubated for 72 hrs by MTT assay; assay type: functional, cell-based; conditions: MDA-MB-453, 72 h
[3] = Cytotoxicity against human MCF-10A cells assessed as inhibition of cell growth incubated for 72 hrs by MTT assay; assay type: toxicity, cell-based
[4] = Cytotoxicity against human HCEC cells assessed as inhibition of cell growth incubated for 72 hrs by MTT assay; assay type: toxicity, cell-based; conditions: human, HCEC cells
[5] = Half life in Wistar rat at 15 mg/kg, ip measured upto 24 hrs by HPLC analysis; assay type: ADME, organism-based; conditions: in vivo
[6] = Tmax in Wistar rat at 15 mg/kg, ip measured upto 24 hrs by HPLC analysis; assay type: ADME, organism-based; conditions: in vivo
[7] = Cmax in Wistar rat at 15 mg/kg, ip measured upto 24 hrs by HPLC analysis; assay type: ADME, organism-based; parameters: dose 15 mg/kg, time < 24 hrs, route ip; conditions: in vivo
[8] = AUC (0 to t) in Wistar rat at 15 mg/kg, ip measured upto 24 hrs by HPLC analysis; assay type: ADME, organism-based; parameters: dose 15 mg/kg, time < 24 hrs, route ip; conditions: in vivo
[9] = AUC (0 to infinity) in Wistar rat at 15 mg/kg, ip measured upto 24 hrs by HPLC analysis; assay type: ADME, organism-based; parameters: dose 15 mg/kg, time < 24 hrs, route ip; conditions: in vivo
[10] = MRT (0 to infinity) in Wistar rat at 15 mg/kg, ip measured upto 24 hrs by HPLC analysis; assay type: ADME, organism-based; conditions: in vivo
[11] = Apparent volume of distribution in Wistar rat at 15 mg/kg, ip measured upto 24 hrs by HPLC analysis; assay type: ADME, organism-based; conditions: in vivo
[12] = Apparent oral clearance in Wistar rat at 15 mg/kg, ip measured upto 24 hrs by HPLC analysis; assay type: ADME, organism-based; conditions: in vivo
[13] = AUMC (0 to infinity) in Wistar rat at 15 mg/kg, ip measured upto 24 hrs by HPLC analysis; assay type: ADME, organism-based; conditions: in vivo
4T1 [14] = test: Induction of apoptosis in mouse 4T1 cells at 1.54 uM incubated for 72 hrs by annexin/PI staining based flow cytometry analysis (reference value: 1.35%); assay type: functional
4T1 [15] = test: Cell cycle arrest in mouse 4T1 cells assessed as accumulation of cells at G1 phase at 1.54 uM incubated for 72 hrs by flow cytometry; assay type: functional
4T1 [16] = test: Cell cycle arrest in mouse 4T1 cells assessed as accumulation of cells at G1 phase at 7.72 uM incubated for 72 hrs by flow cytometry; assay type: functional
4T1 [17] = test: Cell cycle arrest in mouse 4T1 cells assessed as accumulation of cells at G1 phase at 38.6 uM incubated for 72 hrs by flow cytometry; assay type: functional
MDA-MB-231 [18] = test: Cytotoxicity against wild type human MDA-MB-231 cells assessed as reduction in cell viability incubated for 72 hrs by MTT assay; assay type: functional, cell-based; conditions: MDA-MB-231, 72 h
[19] = Cytotoxicity against Oxaliplatin-resistant human MDA-MB-231 cell assessed as reduction in cell viability incubated for 72 hrs by MTT assay; assay type: functional, cell-based; conditions: Oxaliplatin-resistant MDA-MB-231 cell
4T1 [20] = test: Antitumor activity against mouse 4T1 cells implanted in BALB/c mouse assessed as reduction in tumor volume at 15 mg/kg, ip administered 5 times a week for 21 days (reference value: 52.25 +/-13.24 mm3); assay type: functional; conditions: time 21 day
4T1 [21] = test: Antitumor activity against mouse 4T1 cells implanted in BALB/c mouse assessed as reduction in tumor volume at 5 mg/kg, ip administered 5 times a week for 21 days (reference value: 51.91 +/-7.45 mm3); assay type: functional; conditions: time 21 day
4T1 [22] = test: Antitumor activity against mouse 4T1 cells implanted in BALB/c mouse assessed as reduction in tumor weight at 15 mg/kg, ip administered 5 times a week for 21 days; assay type: functional; conditions: time 21 day
4T1 [23] = test: Antitumor activity against mouse 4T1 cells implanted in BALB/c mouse assessed as tumor growth inhibition at 15 mg/kg, ip measured on day 7; assay type: functional; conditions: 4T1, 168 h, time 7 day, read-out: TGI
4T1 [24] = test: Antitumor activity against mouse 4T1 cells implanted in BALB/c mouse assessed as tumor growth inhibition at 15 mg/kg, ip measured on day 14; assay type: functional; conditions: 4T1, 336 h, time 14 day, read-out: TGI
4T1 [25] = test: Antitumor activity against mouse 4T1 cells implanted in BALB/c mouse assessed as tumor growth inhibition at 15 mg/kg, ip measured on day 21; assay type: functional; conditions: 4T1, 504 h, time 21 day, read-out: TGI
4T1 [26] = test: Antitumor activity against mouse 4T1 cells implanted in BALB/c mouse assessed as increase in apoptosis in tumor tissue at 5 to 15 mg/kg, ip by TUNEL staining based microscopic analysis; assay type: functional, organism-based; conditions: dose 5-15 mg/kg
4T1 [27] = test: Antitumor activity against mouse 4T1 cells implanted in BALB/c mouse assessed as reduction in Ki-67 expression in tumor tissue at 5 to 15 mg/kg, ip measured for 21 days by fluorescence based microscopic analysis; assay type: functional, organism-based; conditions: dose 5-15 mg/kg, time 21.0 day
[28] = Toxicity in BALB/c mouse implanted with mouse 4T1 cells assessed as heart damage at 5 to 15 mg/kg, ip measured after 21 days by H and E staining based assay; assay type: organism-based; conditions: in vivo, 504 h, dose 5-15 mg/kg, time 21 day
[29] = Toxicity in BALB/c mouse implanted with mouse 4T1 cells assessed as liver damage at 5 to 15 mg/kg, ip measured after 21 days by H and E staining based assay; assay type: organism-based; conditions: in vivo, 504 h, dose 5-15 mg/kg, time 21 day
[30] = Toxicity in BALB/c mouse implanted with mouse 4T1 cells assessed as kidney damage at 5 to 15 mg/kg, ip measured after 21 days by H and E staining based assay; assay type: organism-based; conditions: in vivo, 504 h, dose 5-15 mg/kg, time 21 day
[31] = Toxicity in BALB/c mouse implanted with mouse 4T1 cells assessed as spleen damage at 5 to 15 mg/kg, ip measured after 21 days by H and E staining based assay; assay type: organism-based; conditions: in vivo, 504 h, dose 5-15 mg/kg, time 21 day
4T1 [32] = test: Antitumor activity against mouse 4T1 cells implanted in BALB/c mouse assessed as increase in number of lung nodules at 15 mg/kg, ip measured for 7 days by H and E staining based assay; assay type: functional, organism-based; conditions: time 7.0 day

- half-life [5]: 5.18 h
- Tmax [6]: 2 h
- Cmax [7]: 5240 ng/mL
- AUC(0-t) at 24 h [8]: 14500 ng·h/mL
- AUC(0-inf) [9]: 14700 ng·h/mL
- MRT inf [10]: 3.66 h
- Vz/F [11]: 7.65 (mg/kg)/(ug/ml)
- CL/F [12]: 1.03 (mg/kg)/(ug/ml).hr
- AUMC [13]: 53.64 ug/ml.hr^2
Compound: CCCCNNC(=O)c1ccc(Br)cc1
- IC50 (MCF7): 15.4 µM
- IC50 (4T1 [1]): 7.72 µM
- IC50 (MDA-MB-231 [2]): 24.7 µM
- IC50 (MDA-MB-453): 25.3 µM
- IC50 at 72 h [3]: 99.3 µM
- IC50 at 72 h [4]: 95.4 µM
- Activity (4T1 [14]): 30.4%
- Activity (4T1 [15]): 50.4%
- Activity (4T1 [16]): 41.4%
- Activity (4T1 [17]): 52.3%
- IC50 (MDA-MB-231 [18]): 24.7 µM
- IC50 [19]: 27.4 µM
- Activity (4T1 [20]): 520.32 mm3
- Activity (4T1 [21]): 1005.32 mm3
- Activity (4T1 [22]): 0.29 g
- inhibition in vivo at 15 mg/kg (4T1 [23]): 55.6%
- inhibition in vivo at 15 mg/kg (4T1 [24]): 38.4%
- inhibition in vivo at 15 mg/kg (4T1 [25]): 39.5%
- Activity (4T1 [26]): Active
- Activity (4T1 [27]): Active
- Activity [28]: Non-Toxic
- Activity [29]: Non-Toxic
- Activity [30]: Non-Toxic
- Activity [31]: Non-Toxic
- Activity (4T1 [32]): inactive
